Experimental data published in patent US20110021531A1, “OXAZOLE DERIVATIVES USEFUL AS INHIBITORS OF FAAH” (priority 2009, published 2011).

Experiments:
[1] = molecular target: T1, human FAAH (Fatty Acid Amide Hydrolase) (Homo sapiens, UniProt O00519); assay: FAAH enzyme assay on lysate of CHO cells expressing human FAAH; type: biochemical
T1 construct: The full length FAAH was subcloned into the mammalian expression vector, pcDEF.neo
T1 sequence (O00519 1-579): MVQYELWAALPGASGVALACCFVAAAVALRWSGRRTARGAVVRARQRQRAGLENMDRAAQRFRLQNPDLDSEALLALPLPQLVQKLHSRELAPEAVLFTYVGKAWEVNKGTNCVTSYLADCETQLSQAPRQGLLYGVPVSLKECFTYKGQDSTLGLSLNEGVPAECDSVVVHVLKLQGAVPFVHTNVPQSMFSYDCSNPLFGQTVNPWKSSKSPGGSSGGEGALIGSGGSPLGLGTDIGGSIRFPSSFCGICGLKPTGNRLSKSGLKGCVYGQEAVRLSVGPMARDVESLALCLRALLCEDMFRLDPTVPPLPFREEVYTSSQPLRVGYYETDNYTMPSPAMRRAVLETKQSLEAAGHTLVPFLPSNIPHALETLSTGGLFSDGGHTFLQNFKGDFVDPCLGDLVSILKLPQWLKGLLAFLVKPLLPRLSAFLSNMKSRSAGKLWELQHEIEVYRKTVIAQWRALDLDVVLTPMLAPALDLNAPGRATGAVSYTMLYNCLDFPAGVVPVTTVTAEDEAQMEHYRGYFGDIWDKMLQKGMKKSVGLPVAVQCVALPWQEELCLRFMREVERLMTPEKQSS
Text: (§1) To assist in assay development stable cell lines for human, murine and rat full length FAAH were developed. Human FAAH cDNA (Accession No: NM_001441.1) was purchased from Origene (Rockville, Md.). The full length FAAH was subcloned into the mammalian expression vector, pcDEF.neo, using XbaI and EcoRI restriction sites and used for stable cell line generation.
CHO cells expressing FAAH were used to prepare either crude cell lysate or microsome fractions. To harvest cells, tissue culture media was decanted, the monolayer washed three times with Ca^++Mg^++ free PBS and cells recovered after […] in enzyme free dissociation media (Millipore Corp, Billerica, Mass.). Cells were collected by centrifuging at 2000 rpm for 15 min. and the cell pellet re-suspended with 50 mM HEPES (pH 7.4) containing 1 mM EDTA and the protease inhibitors aprotinin (1 mg/ml) and leupeptin (100 μM). The suspension was sonicated at 4° C. and the cell lysate recovered after centrifuging at 12,000×g (14,600 rpm, SS34 rotor) for 20 min at 4° C. to form a crude pellet of cell debris, nuclei, peroxisomes, lysosomes, and mitochondria; the supernatant or cell lysate was used for FAAH enzyme assay. In some cases, microsomes fractions enriched in FAAH were prepared by centrifuging the cell lysate further at 27,000 rpm (100,000×g) in SW28 rotor for 50 minutes at 4° C. The pellet containing FAAH-enriched microsomes was re-suspend in 50 mM HEPES, (pH 7.4) 1 mM EDTA, and any remaining DNA sheared by passage of material through a 23 gauge needle and aliquots of enzyme were store at −80° C. prior to use.
(§2) (American Radiolabeled Chemicals; 1 mCi/ml) with FAAH (Life Sciences (1995), 56, 1999-2005 and Journal of Pharmacology and Experimented Therapeutics (1997), 283, 729-734), Analytical. Biochemistry (2003), 318, 270-5. In addition, routine assays were performed monitoring hydrolysis of arachidonyl-7-amino-4-methylcoumarin amide (AAMCA) by following increase in fluorescence upon release of 7-amino 4-methyl coumarin (λEX=355 nm, (λEM=460 nm). Analytical. Biochemistry (2005). 343, 143-51
(§3) Assays are performed on either cell lysate or microsome fractions prepared as described or in whole cell format employing either the fluorescent substrate AAMCA (Cayman chemical, Ann Arbor, Mich.,) or ^3H-anandmaide ([ETHANOLAMINE-1-3H]American Radiolabeled Chemicals; 1 mCi/ml). The cell lysate or microsome assay is performed in Costar black wall, clear bottom plates by adding FAAH_CF10 (whole cell, cell lysate or microsome) in assay buffer (50 mM Phosphate, pH 8.0, 1 mM EDTA, 200 mM KCl, 0.2% glycerol, 0.1% fatty acid free BSA) to each well, followed by either DMSO or compound and allowed to incubate at 22-25° C. for fifteen minutes. AAMCA substrate was used to achieve a final concentration of 1 μM and reaction allowed to proceed at room temperature for 1-3 hours. Fluorescent release as a measure of FAAH activity was monitored by reading the plate in a CytoFluor Multiplate Reader (Ex: […]). Whole cell assay is conducted with cells harvested after rinsing tissue culture flasks three times with Ca^++Mg^++ free PBS, incubating for 10 min in Enzyme free dissociation media and centrifuging for 5 minutes at 1,000 rpm in table top centrifuge. Cells are resuspended in assay buffer at desired cell number in (4×10^4 cells/assay in 96-well format; 1×10^4 cells/assay in 384-well format) and assayed as described.
Alternatively, assays are performed using anandamide [ethanolamine 1-^3H] (specific activity of 10 Ci/mmol) diluted with cold anandamide to achieve a final assay concentration of 1 μM anandamide (˜50,000 cpm). Enzyme (CHO cell lysate, brain or liver homogenate) is incubated in assay buffer (50 mM Phosphate, pH 8.0, 1 mM EDTA, 200 mM KCl, 0.2% glycerol, 0.1% fatty acid free BSA) with inhibitor at 25° C. for 30 minutes. The reaction was terminated by addition of 2 volumes of chloroform:methanol (1:1) and mixed by vortexing. […]

[2] = molecular target: T1, human FAAH (Fatty Acid Amide Hydrolase); assay: FAAH whole cell assay, CHO cells expressing human FAAH; type: cell-based
Text: as §1
(§4) Murine (accession number NM_010173) and Rat FAAH (accession number NM_024132) was amplified by reverse transcriptase polymerase chain reaction (RT-PCR) from brain cDNA (BD Biosciences, San Jose, Calif.) using primers 1 and 2 or primers 1 and 3 respectively (see Table). The resulting PCR product was ligated into pCR4 TOPO and DNA sequence confirmed. The full length murine FAAH was subcloned into the mammalian expression vector, pcDEFneo using either EcoRI (murine) or KpnI and EcoRI (rat) restriction sites. Chinese hamster ovary cells (CHO) were transfected following manufacturers protocol (AMAXA). Forty eight hours post transfection, cells were trypsinized and transferred to 96 well plates in Iscove's DMEM media supplemented with 2 mM Glutamine, 10% fetal calf serum, 1 mg/ml geneticin and HT Supplement (0.1 mM sodium hypoxanthine, 0.016 mM thymidine) in order to isolate single clones. Following selection in geneticin, individual clones were selected and FAAH activity was assessed using a whole cell fluorescent anandamide assay, modified from Ramarao et al (2005). Following removal of tissue culture media cells were dislodged following addition of Cellstripper (Mediatech, Inc. Manassas, Va.) and transferred to 96 well black clear bottom assay plate, centrifuged at 1,000 rpm for 3 mins and media removed and replaced with assay buffer (50 mM Iris pH8.0, 1 mM EDTA, 0.1% fatty acid free BSA). The reaction was initiated by addition of fluorescent substrate, AMC Arachidonoyl Amide (Cayman Chemical, Ann Arbor, Mich.) to 1 μM and reaction allowed to proceed for 2 hours at room temperature. Release of fluorescence was monitored in a CytoFluor Multiplate Reader. Cells expressing the highest amount of FAAH activity were selected for study with FAAH inhibitors.
as §2, §3

[3] = molecular target: T2, rat FAAH (Fatty Acid Amide Hydrolase) (Rattus norvegicus, UniProt P97612); assay: FAAH whole cell assay, CHO cells expressing rat FAAH; type: cell-based
T2 sequence (P97612 1-579): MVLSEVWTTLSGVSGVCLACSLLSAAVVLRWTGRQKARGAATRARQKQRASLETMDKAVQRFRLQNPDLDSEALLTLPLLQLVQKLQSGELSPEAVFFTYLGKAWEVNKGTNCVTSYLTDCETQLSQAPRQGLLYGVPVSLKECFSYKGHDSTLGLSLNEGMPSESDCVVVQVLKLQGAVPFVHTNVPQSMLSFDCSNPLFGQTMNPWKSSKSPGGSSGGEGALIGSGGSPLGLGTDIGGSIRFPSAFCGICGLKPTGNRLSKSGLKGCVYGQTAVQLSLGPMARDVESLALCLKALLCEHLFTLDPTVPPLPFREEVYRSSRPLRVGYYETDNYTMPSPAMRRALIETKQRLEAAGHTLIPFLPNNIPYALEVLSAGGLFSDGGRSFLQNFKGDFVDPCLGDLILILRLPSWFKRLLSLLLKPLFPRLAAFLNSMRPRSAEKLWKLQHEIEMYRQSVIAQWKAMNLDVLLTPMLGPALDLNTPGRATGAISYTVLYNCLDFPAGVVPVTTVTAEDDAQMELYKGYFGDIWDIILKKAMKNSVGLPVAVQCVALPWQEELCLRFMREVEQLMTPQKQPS
Text: as §1, §4, §2, §3

SMILES	IC50 [1] [nM]	IC50 [2] [nM]	IC50 [3] [nM]
N#CC1(c2ccc(-c3nc(-c4ccc(F)cc4)oc3Sc3ccc(Cl)cn3)cn2)CC(O)C1 (stereo not drawn) [Ex 122, 1-(5-{5-[(5-Chloropyridin-2-yl)sulfanyl]-2-(4-fluorophenyl)-1,3-oxazol-4-yl}pyridin-2-yl)-3-hydroxycyclobutanecarbonitrile]	161	474	146
CC(C)(O)c1ccc(-c2nc(-c3ccccn3)oc2Sc2ccc(F)cn2)cn1 [Ex 125]	93	2290	680
CS(=O)(=O)c1ccc(-c2nc(-c3ccc(F)cc3)oc2Sc2ncc(Cl)cn2)cn1 [Ex 107, 5-Chloro-2-({2-(4-fluorophenyl)-4-[6-(methylsulfonyl)pyridin-3-yl]-1,3-oxazol-5-yl}sulfanyl)pyrimidine]	24	91	11
CC(C)(O)c1ccc(-c2nc(Cc3ccc(F)cc3)oc2Sc2ccc(Cl)cn2)cn1 [Ex 123, 2-(5-{5-[(5-Chloropyridin-2-yl)sulfanyl]-2-(4-fluorobenzyl)-1,3-oxazol-4-yl}pyridin-2-yl)propan-2-ol]	74	510	286
Fc1ccc(-c2nc(-c3ccc(-c4ncon4)cc3)c(Sc3ccc(Cl)cc3)o2)cc1 [Ex 48, 3-{4-[5-[(4-Chlorophenyl)thio]-2-(4-fluorophenyl)-1,3-oxazol-4-yl]phenyl}-1,2,4-oxadiazole]	9	77	8
CC(C)(O)c1ccc(-c2nc(-c3ccccn3)oc2Sc2ncc(Cl)cn2)cn1 [Ex 131]	140	1120	782
CC(C)(O)c1ccc(-c2nc(-c3ccc(OC(F)(F)F)cc3)oc2Sc2ccc(Cl)cn2)cn1 [Ex 68]	15	100	83
CC(C)(O)c1ccc(-c2nc(-c3ccccc3)oc2Sc2ncc(Cl)cn2)cn1 [Ex 62]	23	41	29
CC(C)(O)c1ccc(-c2nc(-c3ccc(F)cc3)oc2Sc2ncc(Cl)cn2)cn1 [Ex 20]	43	59	29

Second part, the molecule after the results:

IC50 [1] [nM]	IC50 [2] [nM]	IC50 [3] [nM]	SMILES
44	222	35	CC(C)(O)c1cc(-c2nc(-c3ccc(F)cc3)oc2Sc2ccc(Cl)cn2)on1 [Ex 98, 2-(5-{5-[(5-Chloropyridin-2-yl)sulfanyl]-2-(4-fluorophenyl)-1,3-oxazol-4-yl}isoxazol-3-yl)propan-2-ol]
19	25	13	CC(C)(O)c1ccc(-c2nc(-c3ccc(F)cc3)oc2Sc2ccc(Cl)cn2)cn1 [Ex 12, 2-{5-[5-[(5-Chloropyridin-2-yl)thio]-2-(4-fluorophenyl)-1,3-oxazol-4-yl]pyridin-2-yl}propan-2-ol]
35	67	25	CC(C)(O)c1ccc(-c2nc(-c3ccc(F)cc3)oc2Sc2ccc(Cl)cn2)cc1 [Ex 80, 2-(4-{5-[(5-Chloropyridin-2-yl)sulfanyl]-2-(4-fluorophenyl)-1,3-oxazol-4-yl}phenyl)propan-2-ol]
5	20	17	C[S+]([O-])c1ccc(-c2nc(-c3ccc(F)cc3)oc2Sc2ccc(Cl)cn2)cn1 (racemic) [Ex 108, (R)-5-Chloro-2-({2-(4-fluorophenyl)-4-[6-(methylsulfinyl)pyridin-3-yl]-1,3-oxazol-5-yl}sulfanyl)pyridine and (S)-5-Chloro-2-({2-(4-fluorophenyl)-4-[6-(methylsulfinyl)pyridin-3-yl]-1,3-oxazol-5-yl}sulfanyl)pyridine]
8	37	34	CC(C)(O)c1ncc(-c2nc(-c3ccc(F)cc3)oc2Sc2ccc(Cl)cn2)cn1 [Ex 74, 2-(5-{5-[(5-Chloropyridin-2-yl)sulfanyl]-2-(4-fluorophenyl)-1,3-oxazol-4-yl}pyrimidin-2-yl)propan-2-ol]
161	337	39	CC(C)(O)c1csc(-c2nc(-c3ccc(F)cc3)oc2Sc2ccc(Cl)cn2)n1 [Ex 100, 2-(2-{5-[(5-Chloropyridin-2-yl)sulfanyl]-2-(4-fluorophenyl)-1,3-oxazol-4-yl}-1,3-thiazol-4-yl)propan-2-ol]
